“And” between values parts separate entries of the source, which are not always exact repeats. Equal values may be shown once.
Key:
CFTR G542X = assay: Functional CFTR channel activity, TECC-24 electrophysiology, 16HBE cells (CFTR G542X readthrough); assay type: cell-based, human
Protocol: (§1) 16HBE human bronchial epithelial cells were seeded onto Transwell 24-well filter inserts coated with human collagen type IV. Cells were seeded 7 days prior to functional testing at a density of 1.7×10^5 cells onto the “apical” chamber filter of the Transwell insert. Cells were grown as submerged cultures (200 μL apical/700 μL basolateral) in Minimal Essential Medium (MEM) containing 10% qualified Fetal Bovine Serum and 1% Penicillin/Streptomycin and incubated at 37° C. and 5% CO2. Growth media on cells was replenished with fresh media every 1-3 days prior to test agent treatment day. After 7 days in culture, the CFTR-mediated chloride (Cl^−) equivalent current (Ieq) of the 16HBE cells was recorded, which may typically form electrically tight epithelia with a transepithelial resistance (Rt) of 2000-6000 Ω·cm2 as described below. Forty-eight hours prior to electrophysiological measurements, fresh growth media containing the test agents was applied to both chambers separating filter bound epithelial monolayer.
(§2) On the day of electrophysiology studies, electrodes of a “Multi-(24-channel) transepithelial current clamp amplifier” (MTECC-24 (TECC-24 for short), EP Devices, Belgium) were soaked in an assay buffer (see below for composition) for at least 2 hours using 24-well Transwell plates without inserts. Cell culture media was replaced in the Transwell assay plates with assay buffer (see below) and the plates were mounted onto a custom-built automated robotic assay platform (Yamaha RCX240S controller) with heated plate holders set at 37° C. for 60 min. After equilibration, transepithelial potential difference (PD) and resistance (Rt) was monitoredat ˜5 min intervals using the TECC-24 transepithelial current clamp. Electrode potential differences were monitored for each pair of Ag/AgCl voltage electrodes by taking voltage measurements from a control (“blank”) plate with matching buffer solutions and 16HBE cells that were not treated with any test agent. PD values for each electrode pair were subtracted from the blank plate from that of the test plates at each time point. Ieq was calculated from the corrected PD values and Rt using Ohm's law. Ieq values were slope corrected to account for measurement drift over time using the equation: Slope corrected value=calculated Ieq−((time x slope)+y-intercept) with the slope and y-intercept calculated from the data points captured during the initial baseline period and following addition of the CFTR inhibitor.
(§3) The equivalent current (Ieq) traces associated with CFTR channel activation were plotted as baseline subtracted mean±standard deviation from 3-4 separate wells on the 24-well Transwell (n=3-4). There are 4 recording periods, with the first set of data points recorded baseline Ieq currents prior to sequential activation of available CFTR channels with forskolin (10 μM) and then in combination with potentiator VX-770/ivacaftor (1 μM). Recorded the last set of data points in the presence of CFTR inhibitor CFTRinh-172 (20 μM) to confirm that currents are mediated via activation of CFTR channels. The test agents and control/reference compounds were pre-diluted to 10-fold concentrations in assay buffer and added manually using a multi-channel pipette to both the basolateral and apical side of the membrane (test plates only). Employed CFTR-mediated changes in Ieq, (i.e. forskolin/VX-770 activated currents) to measure functional CFTR surface expression or treatment-related functional rescue of mutant CFTR.
(§4) The magnitude of test agent mediated enhancement of functional CFTR currents was calculated by comparing forskolin/VX-770 stimulated Ieq relative to baseline/CFTRinh-172 Ieq following 48 hour pretreatment with test agent(s) and normalizing to the forskolin/VX-770 stimulated Ieq determined following 48 hour pretreatment with a maximally effective concentration a reference control aminoglycoside agent (typically 110 μM G418). […]

[1] = tested on: recombinant human CFTR carrying the premature stop codon (PTC) mutation G542X; assay: CFTR-PTC mutant translation readthrough, Nanoluc tagged CFTR luminescence (G542X cell line); assay type: cell-based; conditions: 10 μM G418 alone; 48 hours; cell line (G542X or R1162X) not specified
Outline: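 Readthrough is the 48 h compound-induced luminescence increase scaled to that of maximal G418 (125-250 μM). Compounds run from 50 μM final in 2-fold steps, ±10 μM G418, on 16HBE lines carrying Nanoluc-tagged CFTR G542X (extracellular loop 4 tag) or R1162X (C-terminal tag), with 3 μM VX-809 present.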

CFTR R1162X = assay: Functional CFTR channel activity, TECC-24 electrophysiology, 16HBE cells (CFTR R1162X readthrough); assay type: cell-based, human; conditions: no RTM
Protocol: as §1, §2, §3, §4

[2] = RTM conc. —, eRF3 modulator (CC-90009) 1 uM, ELX-02 100 uM
[3] = RTM 1 uM, no eRF3 modulator, ELX-02 100 uM
[4] = RTM 1 uM, eRF3 modulator (CC-90009) 1 uM, ELX-02 100 uM

OCc1ncn(-c2ncc(OCc3c(Cl)cccc3C(F)(F)F)cn2)n1 [drawing 835]
Currents (% of 110 μM G418 (Max effect)) (CFTR G542X; [2]): 60 % of 110 μM G418 (Max effect)

OCc1ncn(-c2ncc(OCc3c(Cl)cccc3C(F)(F)F)cn2)n1 [drawing 834]
Currents (% of 110 μM G418 (Max effect)) (CFTR G542X; RTM 3 uM, no eRF3 modulator, ELX-02 100 uM): 111 % of 110 μM G418 (Max effect)

OCc1cn(-c2ncc(OCc3c(Cl)cccc3Cl)cn2)cn1 [drawing 837]
Currents (% of 110 μM G418 (Max effect)) (CFTR G542X; RTM 0.5 uM, no eRF3 modulator, Paramomycin 2000 uM): 5 % of 110 μM G418 (Max effect)

CN[C@@H]1[C@@H](O)[C@@H](O[C@@H]2[C@@H](O)[C@H](O[C@H]3O[C@H]([C@@H](C)O)[C@@H](O)[C@H](O)[C@H]3N)[C@@H](N)C[C@H]2N)OC[C@]1(C)O [Example G418, G418, reference compound]
response (Nanoluc luminescence) relative to a maximally effective concentration of G418 [1]: approximately 10 % of the response observed with a maximally effective concentration of G418 (typically 125-250 μM)
Currents (% of 110 μM G418 (Max effect)) (CFTR R1162X; eRF3 modulator (CC-90009) 1 uM, G418 10 uM): 110 % of 110 μM G418 (Max effect) and 95 % of 110 μM G418 (Max effect)
Currents (% of 110 μM G418 (Max effect)) (CFTR R1162X; eRF3 modulator (CC-90009) 10 uM, G418 10 uM): 130 % of 110 μM G418 (Max effect) and 139 % of 110 μM G418 (Max effect)
Currents (% of 110 μM G418 (Max effect)) (CFTR G542X; no RTM, eRF3 modulator (CC-90009) 1 uM, G418 10 uM): 130 % of 110 μM G418 (Max effect)
Currents (% of 110 μM G418 (Max effect)) (CFTR G542X; no RTM, eRF3 modulator (CC-90009) 10 uM, G418 10 uM): 102 % of 110 μM G418 (Max effect)

OCc1ccn(-c2ncc(OCc3c(Cl)cccc3Cl)cn2)n1 [drawing 825]
Currents (% of 110 μM G418 (Max effect)) (CFTR G542X; [3]): 94 % of 110 μM G418 (Max effect)

Cc1cccc(C(F)(F)F)c1COc1ccc(N2CC(CO)OC2=O)cc1 (stereo not shown) [drawing 840]
Currents (% of 110 μM G418 (Max effect)) (CFTR G542X; RTM 1 uM, eRF3 modulator (CC-90009) 1 uM, G418 10 uM): 290 % of 110 μM G418 (Max effect)

O=C1N[C@H](CO)CN1c1ccc(OCc2c(Cl)cccc2Cl)cn1 [drawing 832]
Currents (% of 110 μM G418 (Max effect)) (CFTR G542X; [2]): 83 % of 110 μM G418 (Max effect)

Cc1cccc(C(F)(F)F)c1COc1ccc(-c2nc(CO)n[nH]2)cc1 [drawing 828]
Currents (% of 110 μM G418 (Max effect)) (CFTR G542X; [3]): 109 % of 110 μM G418 (Max effect)

O=C1N[C@H](CO)CN1c1ccc(OCc2c(Cl)cccc2Cl)cn1 [drawing 833]
Currents (% of 110 μM G418 (Max effect)) (CFTR G542X; [4]): 293 % of 110 μM G418 (Max effect)

OCc1cn(-c2ncc(OCc3c(Cl)cccc3Cl)cn2)cn1 [drawing 823]
Currents (% of 110 μM G418 (Max effect)) (CFTR G542X; RTM 0.5 uM, no eRF3 modulator, ELX-02 100 uM): 50 % of 110 μM G418 (Max effect)

O=C1N[C@H](CO)CN1c1ccc(OCc2c(Cl)cccc2Cl)cn1 [drawing 831]
Currents (% of 110 μM G418 (Max effect)) (CFTR G542X; [3]): 79 % of 110 μM G418 (Max effect)

OCc1cn(-c2ncc(OCc3c(Cl)cccc3Cl)cn2)cn1 [drawing 821]
Currents (% of 110 μM G418 (Max effect)) (CFTR G542X; RTM 0.5 uM, no eRF3 modulator, G418 10 uM): 78 % of 110 μM G418 (Max effect)

NC[C@@H]1O[C@H](O[C@H]2[C@@H](O)[C@H](O[C@@H]3[C@@H](O)[C@H](N)C[C@H](N)[C@H]3O[C@H]3O[C@H](CO)[C@@H](O)[C@H](O)[C@H]3N)O[C@@H]2CO)[C@H](N)[C@@H](O)[C@@H]1O [Paramomycin, paramomycin, reference compound]
Currents (% of 110 μM G418 (Max effect)) (CFTR R1162X; eRF3 modulator (CC-90009) 1 uM, Paramomycin 2000 uM): 55 % of 110 μM G418 (Max effect)
Currents (% of 110 μM G418 (Max effect)) (CFTR G542X; no RTM, eRF3 modulator (CC-90009) 1 uM, Paramomycin 2000 uM): 65 % of 110 μM G418 (Max effect)

O=C1O[C@H](CO)CN1c1ccc(OCc2c(Cl)cccc2Cl)cc1 [drawing 841]
Currents (% of 110 μM G418 (Max effect)) (CFTR G542X; RTM 5 uM, no eRF3 modulator, G418 10 uM): 54 % of 110 μM G418 (Max effect)

OCc1ccn(-c2ncc(OCc3c(Cl)cccc3Cl)cn2)n1 [drawing 827]
Currents (% of 110 μM G418 (Max effect)) (CFTR G542X; [4]): 278 % of 110 μM G418 (Max effect)

O=C1O[C@H](CO)CN1c1ccc(OCc2c(Cl)cccc2Cl)cc1 [drawing 842]
Currents (% of 110 μM G418 (Max effect)) (CFTR G542X; RTM 5 uM, eRF3 modulator (CC-90009) 10 uM, G418 10 uM): 323 % of 110 μM G418 (Max effect)

Cc1cccc(C(F)(F)F)c1COc1ccc(N2CC(CO)OC2=O)cc1 (stereo not shown) [drawing 839]
Currents (% of 110 μM G418 (Max effect)) (CFTR G542X; RTM 1 uM, no eRF3 modulator, G418 10 uM): 76 % of 110 μM G418 (Max effect)

Source: patent publication US20250228865A1, “COMPOUNDS FOR ENHANCING READ THROUGH OF GENES CONTAINING PREMATURE TERMINATION CODONS AND METHODS FOR MAKING AND USING THE SAME” (Sanofi US Services Inc., priority 2022, published 2025)
